Measured values: patent publication US20240415819A1, “MACROCYCLIC COMPOUNDS AS PROTEASOME SUBUNIT BETA TYPE-5 INHIBITORS” (Lead Discovery Center GmbH, priority 2021, published 2024)

How the values were obtained:
[1] = molecular target: T1, β5 subunit of the human constitutive proteasome (CPS) (Homo sapiens, UniProt P28074); test: β5 inhibition assay, human constitutive proteasome (Suc-LLVY-AMC); assay type: biochemical; details: IC50 class, Suc-LLVY-AMC substrate
T1 construct: purchased Boston Biochem E-360
Protocol: The enzymatic activity of the β5 subunit of the human constitutive proteasome (CPS) is analyzed. In another assay, which differs from the assay of the human constitutive proteasome only in using the human immunoproteasome (IPS) the enzymatic activity of the β5 subunit of the human immunoproteasome (IPS) is analyzed. […] Inhibition is indicated as IC50 [nM] (“-”=not measured).

HT-29 cells = test: CellTiter-Glo luminescent cell viability assay with HT-29 cells (72h incubation); assay type: cell-based, human; details: Homo sapiens, HT-29, HT29 cells, read-out: CTG HT29
In short: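 400 cells per well in DMEM/10% FCS were dosed after 24 h and kept 72 h at 37 °C, 5% CO2. ATP-based luminescence (CellTiter-Glo) normalized to DMSO and 10 μM staurosporine controls; IC50 by dose-response fit.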

[2] = molecular target: T2, β5 subunit of the human immunoproteasome (IPS) (Homo sapiens, UniProt P28062); test: β5 inhibition assay, human immunoproteasome (Suc-LLVY-AMC); assay type: biochemical; details: IC50 class, Suc-LLVY-AMC substrate
T2 construct: purchased Boston Biochem E-370
In short: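 Human immunoproteasome (1 nM final) was preincubated 10 min at RT with compound in 100 mM HEPES pH 7.5, 50 mM NaCl, 0.02% SDS, 1 mM DTT. Suc-LLVY-AMC (22.6 μM final) was then added for 4 h at RT in the dark. After stopping with 1 μM bortezomib, AMC fluorescence was read (ex 355/em 460 nm).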

Compound | IC50 [1] [nM] | IC50 (HT-29 cells) [nM] | IC50 [2] [nM]
CC(=O)N[C@H]1CCC(=O)NCCCCOc2ccc(C)c(c2)CNC(=O)[C@H](CCc2ccccc2)NC1=O [Compound 171, N-((11S,14S)-1^4-methyl-8,12,15-trioxo-14-phenethyl-2-oxa-7,13,16-triaza-1(1,3)-benzenacycloheptadecaphane-11-yl)acetamide] | 100 to 500 | 100 to 500 | < 100
COc1ccccc1CC(=O)N[C@H]1CC(=O)N2CCCC(CCOc3ccc(C)c(c3)CNC(=O)[C@H](CCc3ccccc3)NC1=O)C2 (stereo partly drawn) [Compound 84, 2-(2-methoxyphenyl)-N-((9S,12S)-5^4-methyl-8,11,14-trioxo-9-phenethyl-4-oxa-7,10-diaza-1(3,1)-piperidina-5(1,3)-benzenacyclotetradecaphane-12-yl)acetamide] | < 100 | < 100 | < 100
CCOC(=O)N[C@H]1CC(=O)N2CCCC(CCOc3ccc(C)c(c3)CNC(=O)[C@H](CCc3ccccc3)NC1=O)C2 (stereo partly drawn) [Compound 39, ethyl ((9S,12S)-5^4-methyl-8,11,14-trioxo-9-phenethyl-4-oxa-7,10-diaza-1(3,1)-piperidina-5(1,3)-benzenacyclotetradecaphane-12-yl)carbamate] | < 100 | < 100 | < 100
Cc1ccc2cc1CNC(=O)[C@@H](CCc1ccccc1)NC(=O)[C@H](NC(=O)OCc1ccccc1)CC(=O)N1CCC[C@H](CCO2)C1 [Compound 290, benzyl ((13R,9R,12R)-5^4-methyl-8,11,14-trioxo-9-phenethyl-4-oxa-7,10-diaza-1(3,1)-piperidina-5(1,3)-benzenacyclotetradecaphane-12-yl)carbamate] | 1000 to 5000 | 100 to 500 | 500 to 1000
Cc1ccc2cc1CNC(=O)[C@H](CCc1ccccc1)NC(=O)[C@@H](NC(=O)c1ccccn1)CC(=O)N1CCCC(CCO2)C1 (stereo partly drawn) [Compound 40, N-((9S,12S)-5^4-methyl-8,11,14-trioxo-9-phenethyl-4-oxa-7,10-diaza-1(3,1)-piperidina-5(1,3)-benzenacyclotetradecaphane-12-yl)picolinamide] | < 100 | < 100 | < 100
Cc1ccc2cc1CNC(=O)[C@H](CCc1ccccc1)NC(=O)[C@@H](NC(=O)CCc1ccc(Br)cc1)CC(=O)N1CCCC(CCO2)C1 (stereo partly drawn) [Compound 175, 3-(4-bromophenyl)-N-((9S,12S)-5^4-methyl-8,11,14-trioxo-9-phenethyl-4-oxa-7,10-diaza-1(3,1)-piperidina-5(1,3)-benzenacyclotetradecaphane-12-yl)propanamide] | < 100 | < 100 | < 100
CC(=O)N[C@H]1CCC(=O)N2CCCC(CCOc3ccc(C)c(c3)CNC(=O)[C@H](CCc3ccccc3)NC1=O)C2 (stereo partly drawn) [Compound 215, N-((9S,12S)-5^4-methyl-8,11,15-trioxo-9-phenethyl-4-oxa-7,10-diaza-1(3,1)-piperidina-5(1,3)-benzenacyclopentadecaphane-12-yl)acetamide] | < 100 | < 100 | < 100
Cc1ccc2cc1CNC(=O)[C@H](CCc1ccccc1)NC(=O)[C@@H](NC(=O)c1ccccc1)CC(=O)N1CCCC(CCO2)C1 (stereo partly drawn) [Compound 26, N-((9S,12S)-5^4-methyl-8,11,14-trioxo-9-phenethyl-4-oxa-7,10-diaza-1(3,1)-piperidina-5(1,3)-benzenacyclotetradecaphane-12-yl)benzamide] | < 100 | < 100 | < 100
